Data set [1] concerns the target T1, PI3Kα E545K (Homo sapiens, UniProt P42336, E545K). In words: PI3Kα E545K mutant in vitro cell based assay, MDA-MB-361 cells. Set-up: MDA-MB-361 (ATCC-HTB-27) cell line (PI3Kα E545K); host or cells: MDA-MB-361. To be noted: MDA-MB-361 cell line, 0% FBS, no insulin, 3 hours treatment. Put shortly: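 MDA-MB-361 cells (PI3Kα E545K) seeded in serum-free MEM assay medium without insulin, attached overnight, then treated 3 h with compound (10-point 1:3 series, 0.3% DMSO). AlphaLISA SureFire readout of lysates. IC50 by 4-parameter fit, normalized to DMSO (max) and 1 μM GDC-0032 (min).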

Data set [2] is described as follows: Metabolic stability and intrinsic clearance in human liver microsomes (MICS). It counts as in vitro ADME. To be noted: human, microsomes, pH 7.4. The essentials: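 Test compound (1 μM final) incubated at 37° C with liver microsomes (0.5 mg/mL protein) in 100 mM phosphate buffer pH 7.4, with 1 mM NADPH or without cofactor; sampled at 0.5–60 min, quenched with cold acetonitrile. Parent remaining quantified by LC-MS/MS; t1/2 from ln-% remaining slope converted to CLint (μL/min/mg protein).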
(In general: Liver microsomes are a subcellular fraction often used to study metabolism.)

Data set [3] concerns the target T1, PI3Kα E545K. The data set is described as follows: PI3Kα E545K mutant in vitro cell based assay, MCF-7 cells. To be noted: MCF-7 cell line, 0% FBS, 3 hours treatment. The source says:
PI3K-Alpha Kinase (PI3Kα) Activity: Wild-Type PI3Kα, H1047R Mutant PI3Kα, and E545K Mutant PI3Kα In Vitro Cell Based Assays and Determination of IC50 Values for Inhibitors
The MDA-MB-453 (ATCC-HTB-131) cell line (PI3Kα H1047R) and MCF-7 (ATCC-HTB-22) cell line (PI3Kα E545K), MDA-MB-361 (ATCC-HTB-27) cell line (PI3Kα E545K), and SKBR3 (ATCC-HTB-30) cell line (wild type PI3Kα) were obtained from the American Type Culture Collection (Manassas, VA). MDA-MB-453 cells were maintained in Dulbecco's Modified Eagle Media (DMEM, Gibco 12430) supplemented with 10% Fetal Bovine Serum, heat inactivated (FBS HI, Gibco 10082), 1× non-essential amino acids (NEAA, Gibco 11140), 1 mM sodium pyruvate (Gibco 11360) and 1× Anti-Anti (Gibco 15240). MCF-7 cells were maintained in Minimum Essential Media (MEM) (Gibco 11095) supplemented with 10% Fetal Bovine Serum, heat inactivated (FBS HI, Gibco 10082), 1× non-essential amino acids (NEAA, Gibco 11140), 1 mM sodium pyruvate (Gibco 11360), 1× Anti-Anti (Gibco 15240) and 10 μg/mL human insulin (Sigma I 9278). MDA-MB-361 cells were maintained in Dulbecco's Modified Eagle Media (DMEM, Gibco 12430) supplemented with 20% Fetal Bovine Serum, heat inactivated (FBS HI, Gibco 10082), 1× non-essential amino acids (NEAA, Gibco 11140), 1 mM sodium pyruvate (Gibco 11360) and 1× Anti-Anti (Gibco 15240). SKBR3 cells were maintained in McCoy's 5A (Gibco 16600) supplemented with 10% Fetal Bovine Serum, heat inactivated (FBS HI, Gibco 10082), and 1× Anti-Anti (Gibco 15240). Cultures were maintained in a humidified incubator at 37° C. under 5% CO2/95% air.
For compound testing in 0% FBS, MDA-MB-453, MCF-7 and SKBR3 cells were seeded at a density of 1.5×10^4, 1.0×10^4, and 1.0×10^4 cells, respectively, per well in white 384-well plates in 20 μl of Minimum Essential Media (MEM) assay media with 1×NEAA, 1 mM sodium pyruvate, and 1 μg/mL human insulin (Sigma 19278) (Assay Medium); while MDA-MB-361 cells were seeded at a density of 1.5×10^4 per well in white 384-well plates in 20 μl Assay Medium without insulin. After plating, cells were allowed to attach overnight. Compounds dissolved in 10 mM stock solutions in DMSO were serially diluted 1:3 in DMSO to generate a 10-point dilution series and plated using an acoustic liquid handler system (Echo 550 Series Liquid Handler, Labcyte). A 5× intermediate compound dilution plate in MEM with 1×NEAA and 1 mM sodium pyruvate (150 μM starting compound concentration in 1.5% DMSO) was then prepared. Five μl of the intermediate serially diluted compounds were added to the cell plate to final concentrations ranging from […] in 0.3% DMSO. 0.3% DMSO alone was used to establish the maximum (MAX) signal and GDC-0032 at a final concentration of 1 μM was used as a reference compound for the minimum (MIN) signal. After 3 hours treatment, the medium was removed, and the cells were lysed in 10 μL of 1× SureFire Lysis buffer with shaking for 10 minutes at room temperature. The Acceptor Mix (Reaction Buffer 1+Reaction Buffer 2+Activation Buffer+SureFire Ultra Acceptor Beads) was prepared by diluting Activation buffer 25-fold in combined Reaction Buffer 1 and Reaction Buffer 2.
The Acceptor beads were diluted 50-fold in the combined Reaction Buffers. Five μL of Acceptor Mix was added to each well, the plate was sealed and covered with foil and incubated for 1 hour at room temperature. The Donor Mix (dilution buffer+SureFire Ultra Donor Beads) was prepared by diluting Donor Beads 50-fold in dilution buffer. Five μL of the Donor Mix was added to each well and the plate sealed and covered with foil and incubated for 1-2 hours at room temperature in the dark. The plates were read on a Neo2 plate reader instrument from Biotek using standard AlphaLisa settings.
Compounds were tested in duplicate and the % inhibition at each compound concentration was used to generate two dose response curves. One IC50 was generated using average % inhibition at each compound concentration. […]

Bounds are passed on as bounds.

T1 sequence (P42336 whole entry E545K): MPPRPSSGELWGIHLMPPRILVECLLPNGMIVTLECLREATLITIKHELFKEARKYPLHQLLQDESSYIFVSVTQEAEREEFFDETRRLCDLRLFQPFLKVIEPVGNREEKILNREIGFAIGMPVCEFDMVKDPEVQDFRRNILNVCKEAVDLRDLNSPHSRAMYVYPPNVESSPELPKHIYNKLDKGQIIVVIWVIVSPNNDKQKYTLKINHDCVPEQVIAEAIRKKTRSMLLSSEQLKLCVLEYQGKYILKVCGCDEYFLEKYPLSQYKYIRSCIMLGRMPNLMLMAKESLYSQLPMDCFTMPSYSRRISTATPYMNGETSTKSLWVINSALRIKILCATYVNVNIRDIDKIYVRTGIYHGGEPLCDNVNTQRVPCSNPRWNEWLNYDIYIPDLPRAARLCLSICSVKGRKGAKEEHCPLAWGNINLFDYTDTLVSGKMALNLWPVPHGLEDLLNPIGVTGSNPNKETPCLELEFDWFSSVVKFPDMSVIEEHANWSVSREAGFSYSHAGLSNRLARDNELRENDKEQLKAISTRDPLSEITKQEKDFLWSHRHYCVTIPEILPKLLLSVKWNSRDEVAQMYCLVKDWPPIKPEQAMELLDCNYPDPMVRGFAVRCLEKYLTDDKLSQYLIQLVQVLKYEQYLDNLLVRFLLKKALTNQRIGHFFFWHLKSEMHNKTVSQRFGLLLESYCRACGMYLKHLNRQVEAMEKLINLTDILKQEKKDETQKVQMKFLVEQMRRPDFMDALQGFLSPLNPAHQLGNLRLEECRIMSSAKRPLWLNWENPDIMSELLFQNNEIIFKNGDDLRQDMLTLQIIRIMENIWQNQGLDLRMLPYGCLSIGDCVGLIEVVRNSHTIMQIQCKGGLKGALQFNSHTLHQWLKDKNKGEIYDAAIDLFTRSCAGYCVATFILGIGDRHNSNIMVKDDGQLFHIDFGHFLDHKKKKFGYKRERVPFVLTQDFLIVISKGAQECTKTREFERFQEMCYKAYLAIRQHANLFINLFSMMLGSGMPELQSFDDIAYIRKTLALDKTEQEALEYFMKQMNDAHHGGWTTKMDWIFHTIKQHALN
T1 sequence (P27986 whole entry partner): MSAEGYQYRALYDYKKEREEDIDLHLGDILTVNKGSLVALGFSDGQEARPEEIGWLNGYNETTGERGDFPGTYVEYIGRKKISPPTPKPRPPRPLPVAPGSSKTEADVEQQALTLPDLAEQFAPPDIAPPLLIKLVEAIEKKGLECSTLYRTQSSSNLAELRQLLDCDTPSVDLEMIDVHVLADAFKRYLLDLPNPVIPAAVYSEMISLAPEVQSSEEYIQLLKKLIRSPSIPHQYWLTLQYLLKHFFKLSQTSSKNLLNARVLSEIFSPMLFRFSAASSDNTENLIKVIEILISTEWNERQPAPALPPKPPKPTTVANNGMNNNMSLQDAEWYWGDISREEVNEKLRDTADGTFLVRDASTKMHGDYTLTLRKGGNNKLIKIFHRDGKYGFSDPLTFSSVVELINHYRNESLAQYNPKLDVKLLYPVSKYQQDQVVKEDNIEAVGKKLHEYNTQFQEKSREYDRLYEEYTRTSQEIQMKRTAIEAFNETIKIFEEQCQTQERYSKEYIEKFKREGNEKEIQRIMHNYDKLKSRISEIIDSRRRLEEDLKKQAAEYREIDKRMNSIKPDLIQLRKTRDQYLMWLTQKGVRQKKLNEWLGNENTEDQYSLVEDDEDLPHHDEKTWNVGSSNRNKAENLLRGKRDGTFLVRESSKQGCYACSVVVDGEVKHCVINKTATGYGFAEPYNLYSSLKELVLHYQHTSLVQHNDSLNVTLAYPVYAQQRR

As usually defined, the IC50 is the concentration that inhibits the measured activity by half. Usually microsomal CLint stands for the rate of metabolic loss divided by the concentration. Higher therefore signals rapid turnover. Consider `Cc1cc([C@@H](C)Oc2ccc(Cl)nc2C(N)=O)c2oc(-c3ccc4nn(C(F)F)cc4c3)c(C)c(=O)c2c1` [Example 66A, 6-Chloro-3-[(1R)-1-[2-[2-(difluoromethyl)indazol-5-yl]-3,6-dimethyl-4-oxo-chromen-8-yl]ethoxy]pyridine-2-carboxamide], for which the IC50 against PI3Kα E545K [1] and against PI3Kα E545K [3] was less than 500 nM throughout. Moreover, the microsomal CLint at 1 μM in data set [2] was less than 50 µL/min/mg.
In data set [2], `Cc1cc([C@@H](C)Oc2ccc(Cl)nc2C(N)=O)c2oc(-c3ccc4nn(C)cc4n3)c(C)c(=O)c2c1` [Example 141A, 6-Chloro-3-[(1R)-1-[3,6-dimethyl-2-(2-methylpyrazolo[4,3-b]pyridin-5-yl)-4-oxo-chromen-8-yl]ethoxy]pyridine-2-carboxamide] showed a microsomal CLint at 1 μM of less than 50 µL/min/mg. The compound also gave an IC50 against PI3Kα E545K [3] of less than 500 nM.
In the case of `Cc1cc([C@@H](C)Oc2ccc(F)cc2S(N)(=O)=O)c2oc(C3CC3)c(C)c(=O)c2c1` [Example 107C, 2-[(1R)-1-(2-Cyclopropyl-3,6-dimethyl-4-oxo-chromen-8-yl)ethoxy]-5-fluoro-benzenesulfonamide], the IC50 against PI3Kα E545K [1] and against PI3Kα E545K [3] was less than 500 nM throughout.
On to `Cc1cc([C@@H](C)Oc2ccc(F)c(F)c2C(N)=O)c2oc(-c3ccc4nn(C)cc4c3)c(C)c(=O)c2c1` [Example 17A, 6-[(1R)-1-[3,6-Dimethyl-2-(2-methylindazol-5-yl)-4-oxo-chromen-8-yl]ethoxy]-2,3-difluoro-benzamide], for which the IC50 on PI3Kα E545K [1] and on PI3Kα E545K [3] was less than 500 nM each time.
As for `COCCn1cc(-c2oc3c([C@@H](C)Oc4ccc(Cl)nc4S(N)(=O)=O)cc(C)cc3c(=O)c2C)cn1` [Example 117C, 6-Chloro-3-[(1R)-1-[2-[1-(2-methoxyethyl)pyrazol-4-yl]-3,6-dimethyl-4-oxo-chromen-8-yl]ethoxy]pyridine-2-sulfonamide], the IC50 against PI3Kα E545K [1] and against PI3Kα E545K [3] was less than 500 nM throughout.
In data set [2], `Cc1cc([C@@H](C)Oc2ccc(Cl)nc2C(N)=O)c2oc(-c3ccc4nn(C)cc4c3F)c(C)c(=O)c2c1` [Example 46C, 6-Chloro-3-[(1R)-1-[2-(4-fluoro-2-methyl-indazol-5-yl)-3,6-dimethyl-4-oxo-chromen-8-yl]ethoxy]pyridine-2-carboxamide] showed a microsomal CLint at 1 μM of less than 50 µL/min/mg. The compound further gave an IC50 on PI3Kα E545K [3] of less than 500 nM.
Compound `Cc1cc([C@@H](C)Oc2ccc(Cl)nc2C(N)=O)c2oc(-c3cc4cn(C)nc4cn3)c(C)c(=O)c2c1` [Example 128A, 6-Chloro-3-[(1R)-1-[3,6-dimethyl-2-(2-methylpyrazolo[3,4-c]pyridin-5-yl)-4-oxo-chromen-8-yl]ethoxy]pyridine-2-carboxamide] returned a microsomal CLint at 1 μM in data set [2] of less than 50 µL/min/mg. Besides, the IC50 at PI3Kα E545K [3] is less than 500 nM.
`Cc1cc([C@@H](C)Oc2ccc(Cl)nc2C(N)=O)c2oc(-c3ccc4nn(CC5(O)CC5)cc4c3)c(C)c(=O)c2c1` [Example 130C, 6-Chloro-3-[(1R)-1-[2-[2-[(1-hydroxycyclopropyl)methyl]indazol-5-yl]-3,6-dimethyl-4-oxo-chromen-8-yl]ethoxy]pyridine-2-carboxamide]: the IC50 against PI3Kα E545K [1] and against PI3Kα E545K [3] was less than 500 nM each time.
As for `Cc1cc([C@@H](C)Oc2ccc(F)nc2S(N)(=O)=O)c2oc(C3CC3)c(C)c(=O)c2c1` [Example 109C, 3-[(1R)-1-(2-Cyclopropyl-3,6-dimethyl-4-oxo-chromen-8-yl)ethoxy]-6-fluoro-pyridine-2-sulfonamide], the microsomal CLint at 1 μM in data set [2] is less than 50 µL/min/mg. The compound also had an IC50 against PI3Kα E545K [3] of less than 500 nM.
For `Cc1cc([C@@H](C)Oc2ccc(Cl)nc2C(N)=O)c2oc(-c3ccc4nn([C@H]5C[C@@H](O)C5)cc4c3)c(C)c(=O)c2c1` [Example 133C, 6-Chloro-3-[(1R)-1-[2-[2-(3-hydroxycyclobutyl)indazol-5-yl]-3,6-dimethyl-4-oxo-chromen-8-yl]ethoxy]pyridine-2-carboxamide], the IC50 against PI3Kα E545K [1] and against PI3Kα E545K [3] was less than 500 nM in each case.
For the compound `CONC(=O)c1ncccc1O[C@H](C)c1cc(C)cc2c(=O)c(C)c(-c3ccc4nn(C)cc4c3)oc12` [Example 23A, 3-[(1R)-1-[3,6-Dimethyl-2-(2-methylindazol-5-yl)-4-oxo-chromen-8-yl]ethoxy]-N-methoxy-pyridine-2-carboxamide], the microsomal CLint at 1 μM in data set [2] is less than 50 µL/min/mg. This compound also yielded a half-maximal inhibitory concentration (IC50) against PI3Kα E545K [3] of less than 500 nM.
Take `Cc1cc([C@@H](C)Oc2ccc(Cl)nc2C(N)=O)c2oc(-c3ccc4nn(CCO)cc4c3)c(C)c(=O)c2c1` [Example 129C, 6-Chloro-3-[(1R)-1-[2-[2-(2-hydroxyethyl)indazol-5-yl]-3,6-dimethyl-4-oxo-chromen-8-yl]ethoxy]pyridine-2-carboxamide]: the IC50 at PI3Kα E545K [1] and against PI3Kα E545K [3] was less than 500 nM each time.
With `Cc1cc([C@@H](C)Oc2ccc(Cl)nc2S(N)(=O)=O)c2oc(-c3ccc4nn(C)cc4c3)c(C)c(=O)c2c1` [Example 16A, 6-Chloro-3-[(1R)-1-[3,6-dimethyl-2-(2-methylindazol-5-yl)-4-oxo-chromen-8-yl]ethoxy]pyridine-2-sulfonamide], the IC50 against PI3Kα E545K [1] and at PI3Kα E545K [3] was less than 500 nM in each case.
On to `Cc1cc([C@@H](C)Oc2ccc(Cl)nc2C(N)=O)c2oc(-c3cncc(F)c3)c(C)c(=O)c2c1` [Example 20A, 6-Chloro-3-[(1R)-1-[2-(5-fluoro-3-pyridyl)-3,6-dimethyl-4-oxo-chromen-8-yl]ethoxy]pyridine-2-carboxamide], for which the microsomal CLint at 1 μM in data set [2] is less than 50 µL/min/mg. The compound also gave an IC50 against PI3Kα E545K [3] of less than 500 nM.
Turning to `Cc1cc([C@@H](C)Oc2ccc(Cl)nc2S(N)(=O)=O)c2oc(C3CC3CO)c(C)c(=O)c2c1` (single isomer, unassigned) [Example 126C], the IC50 against PI3Kα E545K [1] and against PI3Kα E545K [3] was less than 500 nM in each case.
The compound `Cc1cc([C@@H](C)Oc2ccc(Cl)nc2S(N)(=O)=O)c2oc(-c3ccc4nc(C)cn4n3)c(C)c(=O)c2c1` [Example 19C, 6-Chloro-3-[(1R)-1-[3,6-dimethyl-2-(2-methylimidazo[1,2-b]pyridazin-6-yl)-4-oxo-chromen-8-yl]ethoxy]pyridine-2-sulfonamide] returned a microsomal CLint at 1 μM in data set [2] of less than 50 µL/min/mg. In addition, the IC50 at PI3Kα E545K [3] was less than 500 nM.
Turning to `Cc1cc([C@@H](C)Oc2cccnc2C(=O)NOCC2CC2)c2oc(-c3ccc4nn(C)cc4c3)c(C)c(=O)c2c1` [Example 25A, N-(Cyclopropylmethoxy)-3-[(1R)-1-[3,6-dimethyl-2-(2-methylindazol-5-yl)-4-oxo-chromen-8-yl]ethoxy]pyridine-2-carboxamide], the IC50 at PI3Kα E545K [1] and against PI3Kα E545K [3] was less than 500 nM throughout.

Source of the values: patent US20240182460A1, “ALLOSTERIC CHROMENONE INHIBITORS OF PHOSPHOINOSITIDE 3-KINASE (PI3K) FOR THE TREATMENT OF DISEASE” (PETRA PHARMA CORPORATION, priority 2022, published 2024).
